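Assay format: 96-well plates, 48-hour exposure. GI50 marks 50% less growth. TGI: total growth inhibition.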
Experiments:
Assay in all cases: NCI tumour cell line growth inhibition, 48 h
[1] = test system: HCT-116 colon
[2] = test system: HCT-15 colon
[3] = test system: SK-MEL-28 melanoma
[4] = test system: K-562 leukemia
[5] = test system: SK-MEL-2 melanoma
[6] = test system: HOP-92 NSCLC
[7] = test system: CCRF-CEM leukemia
[8] = test system: NCI-H460 lung
[9] = test system: HT29 colon
[10] = test system: OVCAR-4 ovarian

Row | SMILES | TGI [1] | TGI [2] | TGI [3] | TGI [4] | TGI [5] | TGI [6] | TGI [7] | TGI [8] | TGI [9] | TGI [10] | GI50 [1] | GI50 [2] | GI50 [3] | GI50 [4] | GI50 [5] | GI50 [6] | GI50 [7] | GI50 [8] | GI50 [9] | GI50 [10]
1 | CC1CN1c1c(C(=O)/C=C/c2ccccc2)c(-c2ccccc2)nn(C)c1=O (centres undefined) | 33.2 µM | 27.4 µM | 47.5 µM | 50.4 µM | 29.9 µM | 46.7 µM | 37.9 µM | 41.2 µM | 29.4 µM | 31.9 µM |  |  |  |  |  |  |  |  |  | 
2 | CCCCn1c(=O)c2c(nc3n2CCCN3CCc2ccc(OCC(=O)NCCN(CC)CC)cc2)n(CCCC)c1=O | 6.42 µM | 3.47 µM | 2.04 µM | 4.39 µM | 15.3 µM | 3.45 µM | 3.9 µM | 7.94 µM | 6.4 µM | 9.76 µM | 1.63 µM | 1.11 µM | 0.98 µM | 1.31 µM | 6.7 µM | 0.846 µM | 1.13 µM | 2.2 µM | 1.91 µM | 2.61 µM
3 | CCCCCn1sc(=O)n(Cc2ccc(CNC(=O)OCc3ccc4cccc(O)c4n3)cc2)c1=O | 2.69 µM | 4.81 µM | 2.94 µM | 15.7 µM | 3.47 µM | 2.97 µM | > 100 µM | 3.78 µM | 3.35 µM | 3.21 µM | 0.419 µM | 1.44 µM | 1.6 µM | 0.846 µM | 1.72 µM | 1.21 µM | 0.489 µM | 1.8 µM | 1.89 µM | 1.67 µM
4 | C[C@@H]1O[C@@H](O[C@H]2CC[C@@]3(C)[C@H](CCC4[C@@H]3C(O)C[C@]3(C)[C@@H](c5ccc(=O)oc5)CC[C@]43O)C2)[C@H](O)[C@H](O)[C@H]1O (some centres undefined) | 0.00544 µM | 0.0209 µM | 0.0119 µM | 0.879 µM | 0.0163 µM | 0.0216 µM | 0.0076 µM | 0.00509 µM | 0.00975 µM |  | < 0.00325 µM | 0.00786 µM | 0.0062 µM | 0.00984 µM | 0.00741 µM | 0.00786 µM | < 0.00325 µM | < 0.00325 µM | 0.00481 µM | < 0.00325 µM
5 | COc1ccc(-c2cc(=O)c3c(OC)c(OC)c(OC)c(OC)c3o2)cc1 | > 100 µM | > 100 µM | > 100 µM | > 100 µM | > 100 µM | > 100 µM | > 100 µM | > 100 µM | > 100 µM | > 100 µM |  |  |  |  |  |  |  |  |  | 
6 | COc1ccc(/C=N/NC(=O)Cn2c(-c3ccc(S(C)(=O)=O)cc3)nc3cc(Cl)ccc32)cc1 | > 50 µM | > 50 µM | > 50 µM | > 50 µM | > 50 µM | > 50 µM | > 50 µM | > 50 µM | 7.19 µM | > 50 µM | 0.445 µM | 0.653 µM | 4.48 µM | 0.343 µM | 1.13 µM | 1.52 µM | 0.318 µM | 1.51 µM | 0.689 µM | 2.53 µM
7 | COC(=O)c1nc(-c2ccccc2)oc1S(=O)(=O)n1nc(C)cc1N | 17.6 µM | 17.8 µM | 29.9 µM | 6.98 µM | 30.5 µM | 3.89 µM | 10.5 µM | 36.3 µM | 36.5 µM | 36 µM | 4.73 µM | 4.51 µM | 14.7 µM | 2.13 µM | 13.7 µM | 1.73 µM | 2.11 µM | 17.6 µM | 16.4 µM | 16.2 µM
8 | O=C(Nc1cccc(Nc2ncc(Br)c(NCCc3cnc[nH]3)n2)c1)N1CCCC1 | > 60 µM | > 67 µM | 28.6 µM | > 64.9 µM | 19.4 µM | 7.93 µM | 29 µM | 15 µM | 24.2 µM | 31.1 µM | 1.56 µM | 21.7 µM | 8.6 µM | 2.84 µM | 5.31 µM | 0.932 µM | 0.58 µM | 3.68 µM | 3.85 µM | 3.71 µM
9 | CCN1C(=O)N(CC)C2C1NN=c1s/c(=C3\C(=O)N(CCc4ccccc4)c4ccccc43)c(=O)n12 (centres undefined) | 1.4 µM | > 34.2 µM | > 28.4 µM | > 100 µM | 12.3 µM | 15.6 µM | > 100 µM | 1.88 µM | 1.58 µM | > 100 µM | 0.347 µM | 0.351 µM | 1.2 µM | 0.353 µM | 1.26 µM | 2.55 µM | 2.58 µM | 0.361 µM | 0.351 µM | 1.13 µM
10 | CCN(Cc1ccc(Cl)s1)c1ccc(CO)c(Cl)c1 | 11.3 µM | > 50.6 µM | 25.4 µM | > 53.9 µM | 13.7 µM | 15.1 µM | > 81.1 µM | 10 µM | 16.4 µM | 0.776 µM | 0.0464 µM | 4.2 µM | 11.8 µM | 0.575 µM | 2.02 µM | 0.563 µM | 13.1 µM | 0.202 µM | 3.01 µM | 0.134 µM
11 | COc1cc2c(c(OC)c1OC)-c1ccc(SC)c(=O)cc1[C@@H](NC1OC(CO)C(O)C(O)C1O)CC2 (some centres undefined) | > 100 µM | > 100 µM | > 100 µM | > 100 µM | 0.081 µM | > 57.9 µM | > 100 µM | > 100 µM | 0.0794 µM | > 100 µM | 0.0314 µM | 0.0374 µM | 1.65 µM | 0.0227 µM | 0.0237 µM | 0.0373 µM | 0.0382 µM | 0.0332 µM | 0.028 µM | 0.226 µM
12 | CCOC1=C2N=C(Cc3ccccc3F)N=C2C(=O)c2ccccc21 | > 100 µM | > 100 µM | > 100 µM | > 100 µM | > 100 µM | > 100 µM | > 100 µM | > 100 µM | > 100 µM | > 100 µM |  |  |  |  |  |  |  |  |  | 
13 | N#CN1CC[C@H](C(=O)Nc2ncc(-c3ccncc3)s2)C1 | 3.2 µM | > 100 µM | 9.19 µM | > 100 µM | 0.0976 µM | 0.761 µM | > 100 µM | 14.3 µM | 1.96 µM | 7.07 µM | 0.0401 µM | < 0.021 µM | 0.0814 µM | 0.0471 µM | < 0.01 µM | 0.0802 µM | < 0.0156 µM | < 0.0208 µM | < 0.0197 µM | < 0.027 µM

Source: PubChem BioAssay (NCI)
